Data: US9493727B2 (priority 2010, dated 2016)
Several values for one entry are separate records, joined by “and”; a condition that tells them apart may be missing. Equal entries are not always repeated.

How the values were obtained:
[1] = assay type: physicochemical

Compound	Anionic 1 h, emulsion stability, mL separation [mL]	Anionic 24 h, emulsion stability, mL separation [mL]	Adjuvant 1 h, emulsion stability, mL separation [mL]	Nonionic 1 h, emulsion stability, mL separation [mL]	Adjuvant 24 h, emulsion stability, mL separation [mL]	Nonionic 24 h, emulsion stability, mL separation [mL]	% Separation 1 h (C = cream) [1]	% Separation 24 h (C = cream) ([1]; 24 h)	% Separation 24 h (O = oil separated) ([1]; 24 h)
CN(C)CCCNC(=O)CCCCCCC/C=C/CCCCCCCC(=O)NCCCN(C)C [Mix-26, C18 DiDMAPA Amide]	0	0	–	–	–	–	–	–	–
C[N+](C)([O-])CCCNC(=O)CCCCCCC/C=C/CCCCCCCC(=O)NCCC[N+](C)(C)[O-] [Mix-29, C18 DiDMAPA DiAO]	0	0	0	0	0	–	–	–	–
C=CCCCCCCCC(=O)NCCC[N+](C)(C)[O-] [Sample C10-20, C10 DMAPA AO]	0	0	0	1	0	1	–	–	–
CCCC(CCCCCCCC(=O)NCCC[N+](C)(C)[O-])S(=O)(=O)[O-].[Na+] (centres unmarked) [Sample C12-21, C12 DMAPA AO Sulfonate]	0	0	0	–	0	–	–	–	–
CCCC(CCCCCCCC(=O)NCCCN(C)C)S(=O)(=O)[O-].[Na+] (centres unmarked) [Sample C12-42, C12 DMAPA Sulfonate]	–	–	–	–	–	–	3 C %	3.1 C % and 3.3 C %	–
CCCCCCCC(CCCCCCCC(=O)NCCCN(C)C)S(=O)(=O)[O-].[Na+] (centres unmarked) [Sample C16-11, C16-DMAPA Sulfonate]	–	–	–	–	–	–	3.1 C % and 2.8 C %	4 C % and 3.6 C %	–
C[N+](C)([O-])CCCNC(=O)CCCCCCCCC(CCCCCCCC(=O)NCCC[N+](C)(C)[O-])S(=O)(=O)[O-].[Na+] (centres unmarked) [Sample C18-30, C18 DiDMAPA DiAO Sulfonate]	0	0	0	–	0	–	3.9 C % and 3.1 C %	3.5 C, 0.5 O % and 3.6 C %	3.5 C, 0.5 O %
CN(C)CCCNC(=O)CCCCCCCCC(CCCCCCCC(=O)NCCCN(C)C)S(=O)(=O)[O-].[Na+] (centres unmarked) [Sample C18-68, C18 diDMAPA Amide Sulfonate]	0	0	0	–	0	–	–	–	–
C16 DMAPA Sulfonate AO [Sample C16-12]	0	0	0	0.4	0	0.5	–	–	–
